Assay results as given in ChEMBL document CHEMBL3046407, “Toxicity of monoterpenes against larvae and adults of Colorado potato beetle, Leptinotarsa decemlineata Say (Coleoptera: Chrysomelidae)” (2007).

Key:
Format in all cases: functional
[1] = system: Leptinotarsa decemlineata; experiment: Insecticidal activity against first-instar larval stage of Leptinotarsa decemlineata infested potato leaves assessed as mortality at 10 ul after 96 hr relative to control
[2] = system: Leptinotarsa decemlineata; experiment: Insecticidal activity against adult Leptinotarsa decemlineata infested potato leaves assessed as mortality at 20 ul after 48 hr relative to control
[3] = system: Leptinotarsa decemlineata; experiment: Insecticidal activity against adult Leptinotarsa decemlineata infested potato leaves assessed as mortality at 10 ul after 48 hr relative to control
[4] = system: Leptinotarsa decemlineata; experiment: Insecticidal activity against second-instar larval stage of Leptinotarsa decemlineata infested potato leaves assessed as mortality at 10 ul after 48 hr (reference value: […] +/- 3.3%)
[5] = system: Leptinotarsa decemlineata; experiment: Insecticidal activity against adult Leptinotarsa decemlineata infested potato leaves assessed as mortality at 20 ul after 24 hr relative to control
[6] = system: Leptinotarsa decemlineata; experiment: Insecticidal activity against adult Leptinotarsa decemlineata infested potato leaves assessed as mortality at 10 ul after 96 hr relative to control
[7] = system: Leptinotarsa decemlineata; experiment: Insecticidal activity against adult Leptinotarsa decemlineata infested potato leaves assessed as mortality at 10 ul after 12 hr relative to control
[8] = system: Leptinotarsa decemlineata; experiment: Insecticidal activity against third-instar larval stage of Leptinotarsa decemlineata infested potato leaves assessed as mortality at 10 ul after 48 hr (reference value: […] +/- 3.3%)
[9] = system: Leptinotarsa decemlineata; experiment: Insecticidal activity against third-instar larval stage of Leptinotarsa decemlineata infested potato leaves assessed as mortality at 10 ul after 96 hr (reference value: […] +/- 3.3%)
[10] = system: Leptinotarsa decemlineata; experiment: Insecticidal activity against third-instar larval stage of Leptinotarsa decemlineata infested potato leaves assessed as mortality at 10 ul after 12 hr relative to control
[11] = system: Leptinotarsa decemlineata; experiment: Insecticidal activity against third-instar larval stage of Leptinotarsa decemlineata infested potato leaves assessed as mortality at 20 ul after 96 hr (reference value: […] +/- 3.3%)
[12] = system: Leptinotarsa decemlineata; experiment: Insecticidal activity against third-instar larval stage of Leptinotarsa decemlineata infested potato leaves assessed as mortality at 10 ul after 24 hr relative to control
[13] = system: Leptinotarsa decemlineata; experiment: Insecticidal activity against third-instar larval stage of Leptinotarsa decemlineata infested potato leaves assessed as mortality at 20 ul after 48 hr (reference value: […] +/- 3.3%)
[14] = system: Leptinotarsa decemlineata; experiment: Insecticidal activity against second-instar larval stage of Leptinotarsa decemlineata infested potato leaves assessed as mortality at 10 ul after 96 hr (reference value: […] +/- 3.3%)
[15] = system: Leptinotarsa decemlineata; experiment: Insecticidal activity against second-instar larval stage of Leptinotarsa decemlineata infested potato leaves assessed as mortality at 10 ul after 24 hr (reference value: […] +/- 3.3%)
[16] = system: Leptinotarsa decemlineata; experiment: Insecticidal activity against second-instar larval stage of Leptinotarsa decemlineata infested potato leaves assessed as mortality at 10 ul after 12 hr relative to control
[17] = system: Leptinotarsa decemlineata; experiment: Insecticidal activity against third-instar larval stage of Leptinotarsa decemlineata infested potato leaves assessed as mortality at 20 ul after 24 hr relative to control
[18] = system: Leptinotarsa decemlineata; experiment: Insecticidal activity against first-instar larval stage of Leptinotarsa decemlineata infested potato leaves assessed as mortality at 20 ul after 24 hr relative to control
[19] = system: Leptinotarsa decemlineata; experiment: Insecticidal activity against second-instar larval stage of Leptinotarsa decemlineata infested potato leaves assessed as mortality at 20 ul after 48 hr (reference value: […] +/- 3.3%)
[20] = system: Leptinotarsa decemlineata; experiment: Insecticidal activity against first-instar larval stage of Leptinotarsa decemlineata infested potato leaves assessed as mortality at 10 ul after 48 hr relative to control
[21] = system: Leptinotarsa decemlineata; experiment: Insecticidal activity against first-instar larval stage of Leptinotarsa decemlineata infested potato leaves assessed as mortality at 20 ul after 96 hr relative to control
[22] = system: Leptinotarsa decemlineata; experiment: Insecticidal activity against first-instar larval stage of Leptinotarsa decemlineata infested potato leaves assessed as mortality at 20 ul after 48 hr relative to control
[23] = system: Leptinotarsa decemlineata; experiment: Insecticidal activity against third-instar larval stage of Leptinotarsa decemlineata infested potato leaves assessed as mortality at 20 ul after 12 hr relative to control
[24] = system: Leptinotarsa decemlineata; experiment: Insecticidal activity against first-instar larval stage of Leptinotarsa decemlineata infested potato leaves assessed as mortality at 10 ul after 12 hr relative to control
[25] = system: Leptinotarsa decemlineata; experiment: Insecticidal activity against first-instar larval stage of Leptinotarsa decemlineata infested potato leaves assessed as mortality at 20 ul after 12 hr relative to control
[26] = system: Leptinotarsa decemlineata; experiment: Insecticidal activity against adult Leptinotarsa decemlineata infested potato leaves assessed as mortality at 10 ul after 24 hr relative to control
[27] = system: Leptinotarsa decemlineata; experiment: Insecticidal activity against first-instar larval stage of Leptinotarsa decemlineata infested potato leaves assessed as mortality at 10 ul after 24 hr relative to control
[28] = system: Leptinotarsa decemlineata; experiment: Insecticidal activity against second-instar larval stage of Leptinotarsa decemlineata infested potato leaves assessed as mortality at 20 ul after 24 hr (reference value: […] +/- 3.3%)
[29] = system: Leptinotarsa decemlineata; experiment: Insecticidal activity against adult Leptinotarsa decemlineata infested potato leaves assessed as mortality at 20 ul after 96 hr relative to control
[30] = system: Leptinotarsa decemlineata; experiment: Insecticidal activity against adult Leptinotarsa decemlineata infested potato leaves assessed as mortality at 20 ul after 12 hr relative to control
[31] = system: Leptinotarsa decemlineata; experiment: Insecticidal activity against second-instar larval stage of Leptinotarsa decemlineata infested potato leaves assessed as mortality at 20 ul after 96 hr (reference value: […] +/- 3.3%)
[32] = system: Leptinotarsa decemlineata; experiment: Insecticidal activity against second-instar larval stage of Leptinotarsa decemlineata infested potato leaves assessed as mortality at 20 ul after 12 hr relative to control

Structure (SMILES)	mortality [1] [%]	mortality [2] [%]	mortality [3] [%]	mortality [4] [%]	mortality [6] [%]	mortality [7] [%]	mortality [9] [%]	mortality [10] [%]	mortality [11] [%]	mortality [12] [%]	mortality [13] [%]	mortality [14] [%]	mortality [15] [%]	mortality [16] [%]	mortality [17] [%]	mortality [18] [%]	mortality [19] [%]	mortality [20] [%]	mortality [21] [%]	mortality [22] [%]	other results
CC(=O)OC/C=C(\C)CCC=C(C)C [GERANYL ACETATE]	6.7	16.7	10	20	10	0	13.3	6.7	16.7	10	16.7	20	3.3	3.3	16.7	6.7	23.3	0	16.7	10	mortality [5]: 10%; mortality [8]: 13.3%; mortality [23]: 6.7%; mortality [24]: 0%; mortality [25]: 0%; mortality [26]: 3.3%; mortality [27]: 0%; mortality [28]: 10%; mortality [29]: 26.7%; mortality [30]: 3.3%; mortality [31]: 23.3%; mortality [32]: 6.7%
C=CC(C)(CCC=C(C)C)OC(C)=O (configuration not stated) [LINALYL ACETATE]	86.7	63.3	16.7	80	23.3	0	33.3	23.3	83.3	30	76.7	86.7	36.7	20	73.3	63.3	93.3	70	69.3	93.3	mortality [5]: 23.3%; mortality [23]: 30%; mortality [24]: 16.7%; mortality [25]: 26.7%; mortality [26]: 0%; mortality [27]: 30%; mortality [28]: 63.3%; mortality [29]: 70%; mortality [30]: 10%; mortality [31]: 93.3%; mortality [32]: 30%
CC(C)=CCC/C(C)=C\CO [NEROL]	56.7	10	20	36.7	23.3	13.3	80	26.7	46.7	56.7	30	56.7	16.7	13.3	16.7	16.7	46.7	36.7	56.7	46.7	mortality [5]: 6.7%; mortality [8]: 73.3%; mortality [23]: 16.7%; mortality [24]: 13.3%; mortality [25]: 10%; mortality [26]: 16.7%; mortality [27]: 16.7%; mortality [28]: 16.7%; mortality [29]: 13.3%; mortality [30]: 6.7%; mortality [31]: 53.3%; mortality [32]: 10%
CC(C)=CCC[C@@H](C)CC=O [CITRONELLAL]	86.7	80	100	76.7	100	6.7	26.7	20	33.3	20	26.7	80	53.3	20	20	76.7	93.3	76.7	100	90	mortality [8]: 20%; mortality [23]: 10%; mortality [24]: 6.7%; mortality [25]: 33.3%; mortality [26]: 90%; mortality [27]: 43.3%; mortality [28]: 80%; mortality [29]: 86.7%; mortality [30]: 16.7%; mortality [31]: 93.3%; mortality [32]: 23.3%
CC1=CCC2CC1C2(C)C (stereo not drawn) [ALPHA-PINENE]	66.7	100	100	63.3	100	100	6.7	3.3	36.7	3.3	30	66.7	50	26.7	16.7	43.3	80	63.3	66.7	56.7	mortality [5]: 100%; mortality [23]: 13.3%; mortality [24]: 26.7%; mortality [25]: 13.3%; mortality [26]: 100%; mortality [27]: 50%; mortality [28]: 70%; mortality [29]: 100%; mortality [30]: 96.7%; mortality [31]: 86.7%; mortality [32]: 20%
